Measurements published in patent publication US5770618A (Nastech Pharmaceutical Company, Inc., priority 1996, dated 1998).
Where a name gives a salt, the structure may show the parent alone. Each block holds one molecule with its values, some of them ahead of it.

Assays:
physchem [1] = assay: physchem
physchem [2] = assay: physchem; remark: listed apart in the source
Description: The final pH values of the solutions ranged from about 4 to about 6.

[3] = cited from earlier work

solubility at 24 h (physchem [1]; ammonium acetate 0.1 m, pH 5.4, Clemastine Fumarate Solubility): 6.1 mg/mL
solubility at 24 h (physchem [1]; ammonium acetate 0.25 m, pH 5.5, Clemastine Fumarate Solubility): 12.2 mg/mL
solubility at 24 h (physchem [1]; ammonium acetate 0.5 m, pH 5.6, Clemastine Fumarate Solubility): 25.7 mg/mL
solubility at 24 h (physchem [1]; ammonium acetate 1.0 m, pH 5.7, Clemastine Fumarate Solubility): 43.3 mg/mL
solubility at 24 h (physchem [1]; sodium acetate 0.1 m, pH 5.4, Clemastine Fumarate Solubility): 6.6 mg/mL
solubility at 24 h (physchem [1]; sodium acetate 0.25 m, pH 5.5, Clemastine Fumarate Solubility): 14.3 mg/mL
solubility at 24 h (physchem [1]; sodium acetate 0.5 m, pH 5.6, Clemastine Fumarate Solubility): 24 mg/mL
solubility at 24 h (physchem [1]; sodium acetate 1.0 m, pH 5.7, Clemastine Fumarate Solubility): 41.2 mg/mL
solubility at 24 h (physchem [1]; sodium ascorbate 0.1 m, pH 5.2, Clemastine Fumarate Solubility): 5.5 mg/mL
solubility at 24 h (physchem [1]; sodium ascorbate 0.25 m, pH 5.2, Clemastine Fumarate Solubility): 7.5 mg/mL
solubility at 24 h (physchem [1]; sodium ascorbate 0.5 m, pH 5.2, Clemastine Fumarate Solubility): 16.7 mg/mL
solubility at 24 h (physchem [1]; sodium ascorbate 1.0 m, pH 5.3, Clemastine Fumarate Solubility): 30.6 mg/mL
solubility at 24 h (physchem [1]; sodium citrate 0.15 m, pH 5.6, Clemastine Fumarate Solubility): 28.6 mg/mL
solubility at 24 h (physchem [1]; sodium citrate 0.25 m, pH 5.7, Clemastine Fumarate Solubility): 40 mg/mL
solubility at 24 h (physchem [1]; sodium fumarate 0.25 m, pH 6.2, Clemastine Fumarate Solubility): 44.2 mg/mL
solubility at 24 h (physchem [1]; sodium fumarate 0.5 m, pH 6.4, Clemastine Fumarate Solubility): 82.1 mg/mL
solubility at 24 h (physchem [1]; sodium glycinate 0.25 m, pH 9.1, Clemastine Fumarate Solubility): 15.5 mg/mL
solubility at 24 h (physchem [1]; sodium glycinate 0.5 m, pH 9.4, Clemastine Fumarate Solubility): 26.6 mg/mL
solubility at 24 h (physchem [1]; sodium malate 0.1 m, Clemastine Fumarate Solubility): 13.8 mg/mL
solubility at 24 h (physchem [1]; sodium malate 0.25 m, pH 6, Clemastine Fumarate Solubility): 16.9 mg/mL
solubility at 24 h (physchem [1]; sodium malate 0.5 m, pH 5.5, Clemastine Fumarate Solubility): 25.5 mg/mL
solubility at 24 h (physchem [1]; sodium malate 1.0 m, pH 5.7, Clemastine Fumarate Solubility): 29.3 mg/mL
solubility at 24 h (physchem [1]; sodium maleate 0.25 m, pH 6, Clemastine Fumarate Solubility): 41.4 mg/mL
solubility at 24 h (physchem [1]; sodium maleate 0.5 m, pH 6.5, Clemastine Fumarate Solubility): 65 mg/mL
solubility at 24 h (physchem [1]; sodium maleate 1.0 m, pH 6.8, Clemastine Fumarate Solubility): 153 mg/mL
solubility at 24 h (physchem [1]; sodium succinate 0.25 m, pH 6.1, Clemastine Fumarate Solubility): 15.4 mg/mL
solubility at 24 h (physchem [1]; sodium succinate 0.5 m, pH 6.3, Clemastine Fumarate Solubility): 18.2 mg/mL
solubility at 24 h (physchem [1]; sodium tartarate 0.5 m, pH 5.1, Clemastine Fumarate Solubility): 13.3 mg/mL
solubility (physchem [2]; acetate buffer 0.5 m, pH 4.1): 0.6 mg/mL
solubility (physchem [2]; acetate buffer 0.5 m, pH 5): 3.8 mg/mL
solubility (physchem [2]; acetate buffer 0.5 m, pH 5.3): 11.2 mg/mL
solubility (physchem [2]; acetate buffer 0.5 m, pH 5.5): 18.2 mg/mL
solubility (physchem [2]; acetate buffer 0.5 m, pH 5.7): 24 mg/mL
solubility (physchem [2]; citrate buffer 0.5 m, pH 4.1): 2.7 mg/mL
solubility (physchem [2]; citrate buffer 0.5 m, pH 4.9): 3.3 mg/mL
solubility (physchem [2]; citrate buffer 0.5 m, pH 5.3): 31.6 mg/mL
solubility (physchem [2]; citrate buffer 0.5 m, pH 5.6): 46.3 mg/mL
solubility (physchem [2]; citrate buffer 0.5 m, pH 5.8): 47 mg/mL
SMILES: CN1CCC[C@@H]1CCO[C@](C)(c1ccccc1)c1ccc(Cl)cc1 [Clemastine Fumarate, clemastine fumarate]
solubility in alcohol ([3]; Remington, 19th edition, 1995): only slightly soluble
solubility in water, chloroform or ether ([3]; Remington, 19th edition, 1995): very slightly soluble

SMILES: CN1CCC[C@@H]1CCO[C@](C)(c1ccccc1)c1ccc(Cl)cc1 [clemastine]
solubility in pharmaceutically acceptable solvents ([3]; as is well known in the art, clemastine and its salts): sparingly soluble
